Measured values taken from ChEMBL document CHEMBL5215008, “Bioactive Arylnaphthalide Lignans from Justicia depauperata” (J Nat Prod, 2022).
Converted amounts (≈) assume the structure as drawn.

Tests used:
[1] = tested on: KB 3-1; test: Cytotoxicity against human KB 3-1 cells assessed as reduction in cell viability; assay type: functional, cell-based
[2] = tested on: Salmonella typhi; test: Antibacterial activity against Salmonella enterica subsp. enterica serovar Typhi CPC assessed as bacterial growth inhibition incubated overnight by broth microdilution assay; assay type: functional
[3] = tested on: Staphylococcus aureus; test: Antibacterial activity against Staphylococcus aureus ATCC43300 assessed as bacterial growth inhibition incubated overnight by broth microdilution assay; assay type: functional
[4] = tested on: Klebsiella pneumoniae; test: Antibacterial activity against Klebsiella pneumoniae clinical isolate assessed as bacterial growth inhibition incubated overnight by broth microdilution assay; assay type: functional
[5] = tested on: Pseudomonas aeruginosa; test: Antibacterial activity against Pseudomonas aeruginosa HM801 assessed as bacterial growth inhibition incubated overnight by broth microdilution assay; assay type: functional
[6] = Antioxidant activity assessed as inhibition of ABTS radical scavenging activity measured upto 6 mins; assay type: functional
[7] = tested on: Salmonella enterica; test: Antibacterial activity against Salmonella enterica NR13555 assessed as bacterial growth inhibition incubated overnight by broth microdilution assay; assay type: functional
[8] = tested on: Staphylococcus aureus; test: Antibacterial activity against Staphylococcus aureus ATCC25923 assessed as bacterial growth inhibition incubated overnight by broth microdilution assay; assay type: functional
[9] = tested on: Klebsiella pneumoniae; test: Antibacterial activity against Klebsiella pneumoniae NR41388 assessed as bacterial growth inhibition incubated overnight by broth microdilution assay; assay type: functional

| Compound | IC50 [1] | MIC [2] | MIC [3] | MIC [4] | MIC [5] | IC50 [6] | MIC [7] | MIC [8] | MIC [9] |
| --- | --- | --- | --- | --- | --- | --- | --- | --- | --- |
| COc1ccc(C[C@H]2NC(=O)/C=C/C[C@@H]([C@H](C)[C@H]3O[C@@H]3c3ccccc3)OC(=O)[C@H](CC(C)C)OC(=O)C(C)(C)CNC2=O)cc1Cl [CRYPTOPHYCIN 52] | 1.3e-05 µM |  |  |  |  |  |  |  |  |
| C=CCOC(=O)c1cc2ccc3c(c2c(-c2ccc4c(c2)OCO4)c1C=O)OCO3 |  | 500 µg/mL (≈ 1240 µM) | 500 µg/mL (≈ 1240 µM) | 500 µg/mL (≈ 1240 µM) | 125 µg/mL (≈ 309 µM) |  |  |  |  |
| COC(=O)c1cc2ccc3c(c2c2c1C(=O)c1cc(O)c(O)cc1-2)OCO3 | 9.5 µM |  |  |  |  | 84.5 µM | 250 µg/mL (≈ 686 µM) |  |  |
| GENTAMICIN |  | 0.05 µg/mL | 0.07 µg/mL | 0.03 µg/mL | 0.05 µg/mL |  | 0.07 µg/mL | 0.03 µg/mL | 0.07 µg/mL |
| COc1cc([C@@H](O)[C@@H]2CO[C@H](c3ccc(O)c(OC)c3)[C@H]2CO)ccc1O [TANEGOOL] |  | 31.3 µg/mL (≈ 83.2 µM) | 125 µg/mL (≈ 332 µM) | 62.5 µg/mL (≈ 166 µM) | 15.6 µg/mL (≈ 41.4 µM) | 41.2 µM | 250 µg/mL (≈ 664 µM) | 500 µg/mL (≈ 1330 µM) | 500 µg/mL (≈ 1330 µM) |
| COC1OC(=O)c2cc3ccc4c(c3c(-c3ccc(O)c(O)c3)c21)OCO4 (stereo not drawn) | 4.1 µM | 31.3 µg/mL (≈ 85.4 µM) | 62.5 µg/mL (≈ 171 µM) | 62.5 µg/mL (≈ 171 µM) | 31.3 µg/mL (≈ 85.4 µM) |  | 62.5 µg/mL (≈ 171 µM) | 62.5 µg/mL (≈ 171 µM) | 62.5 µg/mL (≈ 171 µM) |
| CCCCOC1OC(=O)c2cc3ccc4c(c3c(-c3ccc5c(c3)OCO5)c21)OCO4 (stereo not drawn) |  | 500 µg/mL (≈ 1190 µM) | 125 µg/mL (≈ 297 µM) | 500 µg/mL (≈ 1190 µM) | 250 µg/mL (≈ 595 µM) |  |  | 500 µg/mL (≈ 1190 µM) | 500 µg/mL (≈ 1190 µM) |
| Cc1c(C)c2c(c(C)c1O)CCC(C)(C(=O)O)O2 (stereo not drawn) [TROLOX] |  |  |  |  |  | 68 µM |  |  |  |
